Results taken from ChEMBL document CHEMBL1126350, “Phosphonoethylphenylalanine derivatives as novel antagonists of non-NMDA ionotropic glutamate receptors” (Bioorg Med Chem Lett, 1992).
pKi: −log10 of the molar value.

Experiments:
Format in all cases: functional
Mus musculus [1] = assay: Compound was tested for its ability to inhibit pentylenetetrazole-induced seizures in male CF-1 mice by i.c.v. administration
Rattus norvegicus [2] = organism: Rattus norvegicus; assay: The compound was tested for its ability to inhibit AMPA-induced currents in rat brain mRNA-injected xenopus oocytes
Rattus norvegicus [3] = organism: Rattus norvegicus; assay: Inhibition of kainic acid (KA)-induced currents in rat brain mRNA-injected xenopus oocytes
Mus musculus [4] = assay: Compound was tested for its ability to inhibit pentylenetetrazole-induced seizures in male CF-1 mice by i.p. administration; conditions: ip
Rattus norvegicus [5] = organism: Rattus norvegicus; assay: Compound was tested against kainic acid-induced neuronal damage in rat striatum, as assessed by preventing reduction in glutamate decarboxylase GAD activity; parameters: scale not given: the % may be the effect or the level left
Rattus norvegicus [6] = organism: Rattus norvegicus; assay: Compound was tested against kainic acid-induced neuronal damage in rat striatum, as assessed by preventing reduction in choline acetyltransferase (ChAT) activity; parameters: scale not given: the % may be the effect or the level left

Row | SMILES | pKi (Rattus norvegicus [2]) | pKi (Rattus norvegicus [3]) | other results
1 | O=C(O)C1CN(CCCP(=O)(O)O)CCN1 (stereo not given) |  |  | ED50 (Mus musculus [1]): 0.15 nmol
2 | NC(Cc1cc(Br)ccc1CCP(=O)(O)O)C(=O)O (stereo not given) | 4.21 | 5.00 | 
3 | Cc1cc(C)c(CCP(=O)(O)O)c(C[C@H](N)C(=O)O)c1 |  |  | ED50 (Mus musculus [1]): 0.3 nmol; ED50 (Mus musculus [4]): 111 mg/kg
4 | Cc1ccc(CCP(=O)(O)O)c(C[C@H](N)C(=O)O)c1 |  |  | ED50 (Mus musculus [1]): 0.58 nmol; ED50 (Mus musculus [4]): 124 mg/kg
5 | NC(Cc1cc(C2CCCCC2)ccc1CCP(=O)(O)O)C(=O)O (stereo not given) |  | 3.86 | 
6 | Cc1ccc(CCP(=O)(O)O)c(CC(N)C(=O)O)c1 (stereo not given) | 4.89 | 4.96 | 
7 | Cc1cccc(CCP(=O)(O)O)c1CC(N)C(=O)O (stereo not given) |  | < 4.00 | 
8 | NC(Cc1cc(Cl)ccc1CCP(=O)(O)O)C(=O)O (stereo not given) | 4.32 | 4.82 | 
9 | CC(C)(C)c1ccc(CCP(=O)(O)O)c(CC(N)C(=O)O)c1 (stereo not given) |  | 4.54 | 
10 | Cc1cccc(CC(N)C(=O)O)c1CCP(=O)(O)O (stereo not given) |  | < 4.00 | 
11 | CCc1ccc(CCP(=O)(O)O)c(CC(N)C(=O)O)c1 (stereo not given) | 4.30 | 4.77 | 
12 | Cc1ccc(CC(N)C(=O)O)c(CCP(=O)(O)O)c1 (stereo not given) |  | < 4.00 | 
13 | COc1ccc(CCP(=O)(O)O)c(CC(N)C(=O)O)c1 (stereo not given) |  | 4.17 | 
14 | NC(Cc1cccc(-c2ccccc2)c1CCP(=O)(O)O)C(=O)O (stereo not given) |  | 4.08 | 
15 | NC(Cc1cc(F)ccc1CCP(=O)(O)O)C(=O)O (stereo not given) | 3.78 | 4.17 | 
16 | Cc1cc(C)c(CCP(=O)(O)O)c(CC(N)C(=O)O)c1 (stereo not given) | 4.41 | 4.92 | 
17 | NC(Cc1cc(-c2ccccc2)ccc1CCP(=O)(O)O)C(=O)O (stereo not given) |  | 4.12 | 
18 | NC(Cc1cc(C(F)(F)F)ccc1CCP(=O)(O)O)C(=O)O (stereo not given) |  | 5.00 | 
19 | NC(Cc1cc(I)ccc1CCP(=O)(O)O)C(=O)O (stereo not given) | 4.80 | 5.44 | 
20 | C=C(C)[C@H]1CN[C@H](C(=O)O)[C@H]1CC(=O)O [KAINIC ACID] |  |  | Activity (Rattus norvegicus [5]): 45%; Activity (Rattus norvegicus [6]): 32%
